Legend:
[1] = test system: Streptozotocin-treated diabetic B6 mice transplanted with BALB/c islets; test: Islet allograft survival, BALB/c islets transplanted into Streptozotocin-treated diabetic B6 mice; assay type: in vivo, mouse; settings: FIG. 3
Protocol: (§1) FIG. 1 is a timeline detailing the administration of anti-B Lymphocyte Stimulator (anti-BLys™) antibodies and Rapamycin in Streptozotocin-treated diabetic mice transplanted with islets from another mouse strain.
(§2) FIG. 3 is a graph illustrating the percent survival (y-axis) versus time in days (x-axis) for Streptozotocin-treated diabetic B6 mice transplanted with BALB/c islets. Mice were administered Rapamycin (Rapa) (-□-); anti-B Lymphocyte Stimulator (anti-BLys™) antibodies and Rapamycin (anti-BLys™/Rapa) (-Δ-); or neither (no treatment; control) (-⋄-) in accordance with the timeline set forth in FIG. 1.
(§3) BLyS™ regulates mature B-lymphocyte survival and negative selection at the transitional to follicular (TR:FO) tolerance checkpoint. To determine the effect of BLyS™ in an in vivo allograft model, murine islet cells from B6 and BALB/c donor mice were transplanted into Streptozotocin-treated diabetic BALB/c and B6 mice, respectively. The recipient mice were treated with a regimen consisting of a B-lymphocyte depleting dose of a neutralizing anti-BLyS™ mAb (100 μg) on days 10 and 1 post-transplantation, followed by a weekly maintenance taper (50 μg×2 wks, 25 μg×2 wks, 10 μg×2 wks, and 5 μg×2 wks). Starting on the day of islet transplantation, the Streptozotocin treated diabetic recipients were treated with 0.5 mg/kg Rapamycin every other day for two weeks.

[2] = test system: Streptozotocin-treated diabetic BALB/c mice transplanted with B6 islets; test: Islet allograft survival, B6 islets transplanted into Streptozotocin-treated diabetic BALB/c mice; assay type: in vivo, mouse; settings: FIG. 2
Protocol: as §1
as §2, with “2” for “3”, “BALB/c” for “B6”, “B6” for “BALB/c”
as §3

## CO[C@H]1C[C@@H]2CC[C@@H](C)[C@@](O)(O2)C(=O)C(=O)N2CCCC[C@H]2C(=O)O[C@H]([C@H](C)C[C@@H]2CC[C@@H](O)[C@H](OC)C2)CC(=O)[C@H](C)/C=C(\C)[C@@H](O)[C@@H](OC)C(=O)[C@H](C)C[C@H](C)/C=C/C=C/C=C/1C [Rapamycin]
[1]
  mean survival time (MST): 39 days
[2]
  mean survival time (MST): 61 days

Reference: US20160311914A1, “USE OF B LYMPHOCYTE STIMULATOR PROTEIN ANTAGONISTS TO PROMOTE TRANSPLANTATION TOLERANCE” (The Trustees of the University of Pennsylvania, priority 2009, published 2016)
